Columns and labels:
[1] = system: high-affinity rolipram binding sites (HARBSs) of guinea pig brain cell membranes; experiment: Displacement of [3H]-rolipram (PDE4H determination)
Description: When the above-described guinea pigs were sacrificed, the whole brains were removed and homogenized with a glass/Teflon homogenizer (Glas-Col, Terre Haute, IN, USA) in 10 volumes of cold medium (pH 6.5) containing 20 mM Bis-Tris, 2 mM benzamidine, 2 mM EDTA, 50 mM sodium chloride, 0.1 mM PMSF and 1 mM dithiothreitol. At 4°C, the homogenate was centrifuged at 170 g for 5 min to remove connective tissues and blood vessels. The suspended homogenate was then re-centrifuged at 40 000 g for 30 min to separate the cytosolic and particulate portions. The particulate portion was re-suspended in a suspension at a concentration of 400 mg/mL (wet weight/volume), after washing three times with homogenizing buffer. The particulate portion mainly consisted of cell membranes. The binding ability of S-petasin (3–300 μM) or Ro 20-1724 (1–10,000 nM), a reference drug, to high-affinity rolipram binding sites (HARBSs) of the membranes was determined by replacing 2 nM [^3H]-rolipram in a reaction buffer at 30°C for 1 h, according to the method described by previous investigators and modified by us. Briefly, the reaction buffer consisted of 50 mM Tris-HCl and 5 mM MgCl2 (pH 7.5). The total volume of the reaction mixture was 25 μL, consisting of 10 μL of particulate suspension, 10 μL of [^3H]-rolipram and 5 μL of S-petasin or Ro 20-1724. After 1 h, the reaction was terminated by moving the reaction vessel into crushed ice. Then the reaction mixture was transferred onto Whatman GF/B glass-fiber filters, which were soaked in a 0.3% polyethyleneimine solution in a mini-funnel. The reaction mixture was filtered by centrifuging at 90 g for 10 s, and the filtrate was collected into a 1.5 mL Eppendorf tube with a top adapted to the outlet of the mini-funnel. The filters were washed with 300 μL of reaction buffer three times each in the same way, and transferred into 2 mL of cocktail for radiation counting (total binding) using a β-scintillation counter (Beckman, Fullerton, CA, USA). Non-specific binding, which was defined in the presence of 10 μM Ro 20-1724, was subtracted from the total binding to yield the specific binding. The effective concentration (EC50) values of S-petasin and Ro 20-1724, at which a half of [^3H]-rolipram bound onto HARBSs of cell membranes was displaced, were defined as the PDE4H values, and these were related to any adverse effects, such as nausea, vomiting and gastric hypersecretion.

[2] = Solubility limit of S-petasin in the binding assay; assay type: physicochemical; settings: reaction buffer of binding assay, aqueous buffer; read-out: Highest attainable concentration owing to solubility
[3] = system: OVA-sensitized and challenged BALB/c mice; experiment: Airway hyperresponsiveness in vivo (Penh, whole-body plethysmography); set-up: species or system mouse
Description: Ten female BABL/c mice in each group were sensitized by an intraperitoneal (i.p.) injection of 20 μg of OVA emulsified in 2.25 mg aluminum hydroxide gel in a total volume of 100 μL on days 0 and 14. The mice were challenged via the airway by 1% OVA in saline for 30 min on Days 28, 29 and 30 by ultrasonic nebulization. Six weeks after the last of three primary OVA challenges, the mice were exposed to 1% OVA for 30 min by nebulization as a secondary challenge. AHR was assessed on Day 74 (48 h after 1% OVA provocation) in each group. […] For comparison, sham-treated mice were sensitized but challenged with saline instead of 1% OVA (non-challenged). The vehicle, a mixture of alcohol : DMSO : 30% HPβCD : saline (0.5 : 0.5 : 1 : 8 , v/v), or S-petasin was injected at a volume of 0.01 mL/g of body weight. AHR was measured in unrestrained animals by barometric plethysmography using a whole-body plethysmograph (WBP) and analyzed using software of Life Science Suite P3 Analysis Modules (Gould, LDS Test and Measurement LLC, Valley View, OH, USA). The mice were placed into the main chamber of the WBP, and the baseline enhanced pause (P enh) value was determined. Then the mice were nebulized first with phosphate-buffered saline (PBS), and subsequently with increasing doses (6.25–50 mg/mL) of MCh for 3 min for each nebulization, followed by readings of breathing parameters for 3 min after each nebulization with determination of P enh values. Twenty-four hours after the P enh determination, these mice were anesthetized with pentobarbital (50 mg/kg, i.p.), and lavaged via a tracheal tube with PBS (1 × 1.0 mL, 37°C). After lavage, blood was collected from the jugular vein and allowed to sit so that it would coagulate. The collected bronchoalveolar lavage fluid (BALF) and coagulated blood were, respectively, centrifuged at 630 g for 7 min and at 3700 g for 10 min at 4°C, respectively. After centrifugation, the supernatants of BALF and serum were stored at −20°C until the determinations of cytokines, including interleukin (IL)-2, IL-4, IL-5, tumor necrosis factor (TNF)-α and interferon (IFN)-γ by flow cytometric methods using mouse Th1/Th2 cytokine CBA kits, of total immunoglobulin E (IgE), and of total IgG2a using enzyme-linked immunosorbent assay (ELISA) kits (Pharmingen, San Diego, CA, USA) according to the respective recommendations of the manufacturer. OVA-specific IgE was measured as described previously with some modifications. Wells were coated with 100 μL of OVA (20 μg/mL) instead of the capture antibody. Levels are expressed in arbitrary units, where one arbitrary unit equals the optical density of the sample divided by the optical density of unchallenged mouse serum or BALF (standard). The pellet from BALF was re-suspended in ACK lysing buffer (1.658 g NH4Cl, 0.2 g KHCO3 and 1.44 mg EDTA in 200 mL of water) to lyse the residual erythrocytes in each sample. The number of inflammatory cells was counted using a hemocytometer (Hausser Scientific, Horsham, PA, USA). Cytospun slides were stained and differentiated in a blinded fashion by counting at least 100 cells under light microscopy.

C=C(C)[C@@H]1C[C@@]2(C)C(=CC1=O)CC[C@@H](OC(=O)/C=C\SC)[C@@H]2C [S-Petasin]
EC50 ([1]; HARBSs of guinea pig brain cell membranes): > 300 µM
percentage displacement of [3H]-rolipram binding ([1]; at the highest concentration (300 μM), 2 nM [3H]-rolipram): 28.0%±5.7%
solubility [2]: ≤ 300 µM
Penh value at the baseline ([3]; 10 μmol/kg s.c.): 3.19 ± 0.47
Penh value of PBS nebulization ([3]; 10 μmol/kg s.c.): 2.99 ± 0.22
Penh value at the baseline ([3]; 30 μmol/kg s.c.): 3.13 ± 0.32
Penh value of PBS nebulization ([3]; 30 μmol/kg s.c.): 3.02 ± 0.23
Enhancement of the Penh value induced by MCh ([3]; 10–30 μmol/kg s.c., MCh at 50 mg/mL): dose-dependently and significantly attenuated
